We go through four molecules from patent publication US5527775A, “Reduction of mammalian neoplasms with phospholipase A2 activating substances” (Enzon, Inc., priority 1994, dated 1996).

One data set deals with PLA2. The conditions noted are these: Salari et al., Mol. Pharm. 28:546 (1985), cited from earlier work.
A further data set has as its system phospholipase A2. As to the kind of experiment: stimulation of phospholipase A2 activity in vitro. Format: biochemical. The note with it: in vitro (unpublished results). The text has this: As used herein phospholipase A2 activating agents, PLAA, are defined as agents which induce phospholipase A2 activity. A variety of procedures are known in the art for assaying an agent for PLAA activity. These include, but are not limited to, assaying cultured endothelial cells or smooth muscle cells for the release of arachidonic acid in the presence of the agent as well as cell free systems which utilize 1-palmitoyl-2-[14C]arachidonyl-sn-glycero-3-phospho-[methy13H]choline to assay for PLA2 activity (see Clark et al., J. Biol. Chem. 261:10713-10718 (1986) and Clark et al., Biochem. J. 250:125-132 (1988).

Another data set concerns C6 glioma cells. Nature of the data set: rat air pouch glioma model: tumor thickness, weight and necrosis. Type of data set: in vivo. On the procedure:
C6 glioma cells (10^7) were injected into rats and allowed to grow for two weeks. The average thickness of the tumors was approximately 7±2 mm in thickness. The animals were then treated with 500 μg of either agarose complexed PLAP peptide SEQ ID NO. 1 or agarose complexed PLAP-like peptide in which the two adjacent prolines were deleted. After three days of treatment, the animals were given a second injection of the peptide and the tumors were measured on day 6 of the treatment regimen.
C6 glioma cells (10^7) were injected into rats and allowed to grow for two weeks as in FIG. 1. By day 14, the tumors were approximately 7 mm in thickness. The animals were then given the indicated concentrations of the agarose complexed PLAP peptide. The thickness of the tumor was monitored after three days of treatment and the values are shown as a percentage of reduction in the tumor cell mass.
Sprague-Dawley rats were injected with 10^6 C-6 glioma cells. The tumors were allowed to grow for 14 days prior to injection of 500 μg of agarose complexed PLAP peptide. Tumor thickness was measured after 3 and 6 days of treatment.
G6 glioma cells, derived from a glioma induced in the Wistar strain of rat and obtained from the American Type Culture Collection (ATCC) were maintained in tissue culture. The cell cultures were grown to confluence in 75 cm^2 tissue culture flasks, detached from the flasks by addition of trypsin/EDTA, washed twice in fresh culture medium, and resuspended at a final concentration of 2×10^6 cells per ml.
Air pouches were formed in female Sprague-Dawley rats (average age 6-8 weeks; average weight 180 grams). Briefly, 20 cc's of sterile air was injected into the subcutaneous tissues on the dorsum of the animal to form an air filled pouch. Inflation of the pouches was maintained by re-injection of sterile air every other day. Pouches were ready for use on day 7.
Suspension of cultured glioma cells (1×10^6 -1×10^7 cells) were injected into the air pouches. By day 14, the tumors typically were of sufficient size to be used as described below.
Animals were injected with 500 μgrams of PLAP peptide bound to agarose beads. A similar number of rats were injected with unmodified agarose beads as a control. In order to ensure uniform distribution of the bound peptide, the total volumes injected were increased to 5 ml by the addition of sterile saline immediately prior to injection. Since tumor growth was characterized by formation of large effusions containing high levels of eicosanoids, the tumors were aspirated immediately prior to injection of PLAP peptide or agarose beads alone.
Seventy-two hours after injection, the animals were euthanized by using CO2 gas. The tumor effusions were aspirated and the tumor cell numbers were determined using a Coulter counter. The samples were frozen and stored at -80° for later eicosanoid assay. The tumor masses were removed through an incision made in the dorsum of the animal and weighed. […]
To determine the effect of concentration of PLAP peptide on tumor cell number and tumor size, Sprague-Dawley rats were injected with 10^6 C-6 glioma cells as described above, and were then treated with either 0, 0.25, 0.5, or 1 mg/rat PLAP. Three days after treatment, the maximum thickness of the tumors was measured.
To determine the length of the effectiveness of administering PLAP peptide, Sprague-Dawley rats were injected with 10^6 C-6 glioma cells as described above. […] Tumor thickness was measured 3 and 6 days after treatment.

In data set [1] the test system is eicosanoids in exudates obtained from tumors. Nature of the data set: measurement of eicosanoids in tumor exudates. Type of data set: in vivo, rat. The conditions noted are these: 72 hours after injection. On the procedure:
Seventy-two hours after injection, the animals were euthanized by using CO2 gas. The tumor effusions were aspirated and the tumor cell numbers were determined using a Coulter counter. The samples were frozen and stored at -80° for later eicosanoid assay. The tumor masses were removed through an incision made in the dorsum of the animal and weighed. Samples of tumor tissues were stored in formalin for routine histology or snap-frozen in liquid N2 for immunocytochemistry.
Eicosanoid levels in exudates obtained from tumors were determined using enzyme-lined immunoassay kits purchased from Cayman Chemical Company (Ann Arbor, Mich.) and used as recommended by the supplier. Calculations of the amounts of eicosanoids were made using EPA software purchased from the same company.

The subject of another data set is mononuclear cells. Nature of the data set: immunocytochemical analysis of tumors (mononuclear cell infiltrate). Type of data set: in vivo, rat. The note with it: frozen sections of tumor tissues reacted with MAbs. The source says:
Snap-frozen tissue samples were sectioned on a cryotome, fixed in acetone, blocked with levamisole, and then reacted with monoclonal antibodies to cell surface determinants expressed by mononuclear cells. After washing, tissue sections were reacted with biotin-labelled rat anti-mouse IgG monoclonal antibodies, alkaline phosphate-labelled avidin-biotin complex (ABC, Vecta, Burlinghame, Calif.) and color developed by the addition of appropriate substrate. Sections were then mounted in Permount (Fisher Scientific) and read in an Olympus light microscope.
To determine whether PLAP-induced tumor necrosis was associated with specific cellular events, frozen sections of tumor tissues were reacted with MAbs directed at subpopulations of mononuclear cells. […] Thus, PLAP-induced tumor necrosis appears to be mediated through enhanced NK/LAK cell activation.

Data set [2] deals with MTVL murine mammary tumor cells. As to the kind of experiment: survival of mice injected with mammary tumor cells. Type of data set: in vivo, Balb C mice. The note with it: 200 μg agarose bound peptide 1 and 4 days after tumor cells; vs agarose beads alone; p<0.001 (FIG. 4). As to the method:
Balb C mice were injected with 10^6 MTVL murine mammary tumor cells. The mice were treated with 200 μg of agarose complexed PLAP peptide 1 and 4 days after injection of the tumor cells. The animals were checked daily for survival. The results obtained are the average for twenty animals in each group. Animals that received no treatment (.smallcircle.),animals that received PLAP ( ) p<0.001.
The effectiveness of stimulating tumor necrosis for tumors other than gliomas was tested. To test effectiveness of the present methods in treating neoplastic mammary cells, Balb C mice were injected with 10^6 MTVL murine mammary tumor cells as described above for the glioma cells. The mice were treated with 200 μg of agarose bound PLAP peptide 1 and 4 days after injection of the tumor cells. The animals were checked daily for survival. FIG. 4 provides the average of the results obtained for twenty animals in each group.

Data set [3] has as its system LL-2 murine lung tumor cells. Nature of the data set: survival of mice injected with lung tumor cells. The conditions noted are these: 200 μg agarose bound peptide 1 and 4 days after tumor cells; vs agarose beads alone; p<0.0001 (FIG. 5). Type of data set: in vivo, C57 Bl/6 mice. As to the method:
C57 Bl/6 mice were injected with 10^6 LL-2 murine lung tumor cells. The mice were treated with 200 μg of agarose complexed PLAP peptide 1 and 4 days after injection of the tumor cells. The animals were checked daily for survival. The result obtained are the average for twenty animals in each group. Animals that received no treatment (.smallcircle.), animals that received PLAP ( ) p<0.0001.
To test the effectiveness of the present methods in treating neoplastic lung cells, C57 Bl/6 mice were injected with 10^6 LL-2 murine lung tumor cells as described above for the glioma cells. The mice were treated with 200 μg of agarose bound PLAP peptide 1 and 4 days after injection of the tumor cells. The animals were checked daily for survival. FIG. 5 provides the average of the result obtained for twenty animals in each group were used.

For another data set, the system named is neutrophil. The conditions noted are these: Bomalaski et al., J. Immuno. (1989); cited from earlier work.

Where two headings read alike, the source gives them in different places.

For `CC[C@H](C)[C@H](NC(=O)CN)C(=O)NCC(=O)N[C@@H](C)C(=O)N[C@H](C(=O)N[C@@H](CC(C)C)C(=O)N[C@@H](CCCCN)C(=O)N[C@H](C(=O)N[C@@H](CC(C)C)C(=O)N[C@H](C(=O)N[C@H](C(=O)NCC(=O)N[C@@H](CC(C)C)C(=O)N1CCC[C@H]1C(=O)N[C@@H](C)C(=O)N[C@@H](CC(C)C)C(=O)N[C@H](C(=O)N[C@@H](CO)C(=O)N[C@@H](Cc1c[nH]c2ccccc12)C(=O)N[C@H](C(=O)N[C@@H](CCCCN)C(=O)N[C@@H](CCCNC(=N)N)C(=O)N[C@@H](CCCCN)C(=O)N[C@@H](CCCNC(=N)N)C(=O)N[C@@H](CCC(N)=O)C(=O)N[C@@H](CCC(N)=O)C(N)=O)[C@@H](C)CC)[C@@H](C)CC)[C@@H](C)O)[C@@H](C)O)C(C)C)C(C)C` [melittin], the “stimulation of PLA2 activity” value in the data set on PLA2 was “shown to stimulate PLA2 activity”; in the data set on PLA2 (listed as Melittin), “has phospholipase activating activity”.

In the case of “GLU-SER-PRO-LEU-ILE-ALA-LYS-VAL-LEU-THR-THR-GLU-PRO -PRO-ILE-ILE-THR-PRO-VAL-ARG-ARG-(THR-LEU) [PLAP peptide]”, the “stimulation of phospholipase A2 activity in vitro” value in the data set on phospholipase A2 is on record as “stimulated phospholipase A2 activity”. In addition, the “reduction in tumor size as a function of amount administered” value in the data set on C6 glioma cells (rats, 0, 0.25, 0.5 or 1 mg/rat, maximum tumor thickness three days after treatment (FIG. 2)) was “concentration dependent”. The “duration of tumor necrosis” value with C6 glioma cells (rats, 500 μg agarose bound peptide, tumor thickness 3 and 6 days after treatment (FIG. 3)) was “observed to continue even at 6 days”. The “tumor regression / size of the tumor” value in the data set with C6 glioma cells (rats, 500 μg agarose complexed peptide, second injection after three days, tumors measured on day 6 (FIG. 1)) is recorded as “profound effect on the size of the tumor”. Besides, in the data set on C6 glioma cells (rats, 500 μg peptide bound to agarose beads, 72 hours), the “tumor weight compared with control animals” value is recorded as “reduction in tumor weight”. The tumor necrosis result with C6 glioma cells (rats, 500 μg peptide bound to agarose beads, tumor tissues examined after 72 hours) is on record as “caused significant necrosis”. Further, in data set [1], the “amount of LTC4 in exudates from tumors compared with those injected with agarose beads” value is given as “No changes”, the “amount of PGE2 in treated tumors compared with tumors injected with agarose beads” value was determined as 50 fold, the “amount of PGI2 in exudates from tumors compared with those injected with agarose beads” value is listed as “No changes” and the “amount of leukotriene B4 (LTB4) in treated tumors compared with tumors injected with agarose beads” value is given as 20 fold. Further, in the data set on mononuclear cells, the “OXI (cytotoxic T lymphocyte) and NRK-1 positive (NK) cells in the infiltrate” value is on record as “high numbers”; the “mononuclear cell infiltrate in tumor tissues” value is recorded as “stimulated mononuclear cell infiltrate”. In data set [2], the “survival of mice injected with mammary tumor cells” value is reported as “increased the survival”. For the same molecule, the “survival of mice injected with lung tumor cells” value in data set [3] is recorded as “increased the survival”.

As for TNF-alpha, the “stimulation of PLA2 activity” value in the data set on PLA2 is given as “shown to stimulate PLA2 activity”.

B1: PLAP: mouse phospholipase A2 activating protein, molecular mass approximately 28,000 (protein, UniProt P27612 1-794, looked up)
Phospholipase A-2-activating …: MASGASRYRLSCSLPGHELDVRGLVCCLYPPGAFVSVSRDRTTRLWAPDSPNRGFTEMHCMSGHSNFVSCVCIIPSSDIYPHGLIATGGNDHNICIFSLDSPMPLYILKGHKDTVCSLSSGKFGTLLSGSWDTTAKVWLNDKCMMTLQGHTAAVWAVKILPEQGLMLTGSADKTIKLWKAGRCERTFLGHEDCVRGLAILSETEFLSCANDASIRRWQITGECLEVYFGHTNYIYSISVFPNSKDFVTTAEDRSLRIWKHGECAQTIRLPAQSIWCCCVLENGDIVVGASDGIIRVFTESEERTASAEEIKAFERELSQATIDSKTGDLGDINAEQLPGREHLSEPGTREGQTRLIRDGERVEAYQWSVSDGRWIKIGDVVGSSGANQQTSGKVLYEGKEFDYVFSIDVNEGGPSYKLPYNVSDDPWLVAYNFLQKNDLNPMFLDQVAKFIIDNTKGQTLGLGNTSFSDPFTGGGRYVPGTSGPSNTVQTADPFTGAGRYMPGSAGMDTTMTGVDPFTGNSAYRSAASKTVNIYFPKKEALTFDQANPTQILGKLKELNGTAPEEKKLTEDDLVLLEKILSLICNNSSEKPTAQQLQILWKAINWPEDIVFPALDILRLSIKHPNVNENFCNEKGDQFSSHLINLLNPKGKPANQLLALRTFCNCFVSQAGQKLMMSQRESLMSHAIELKSGSNKNIHIALATLTLNYSVCFHKDHNIEGKAQCLSVISTILEVVQDLEATFRLLVALGTLISDDSNAIQLAKSLGVDSQIKKYVSVSEPAKVSECCRLVLHLL
Regarding B1, in the data set on neutrophil, the neutrophil aggregation result is “stimulates neutrophil aggregation” and the neutrophil chemokinesis entry was “stimulates”.
